Data on 1 compound can be found in article PMC8351946, “Mle046 Is a Marine Mesophilic MHETase-Like Enzyme” (Frontiers in Microbiology, 2021).

The assay has as its system T1, Mle046.
T1 construct: signal peptide (first 27 residues) removed; His-tagged (pColdII), tag kept; codon-optimised gene, E. coli Shuffle T7; theoretical 62 kD
Nature of the assay: HPLC ([…] nm), MHET degradation rate, non-linear Michaelis-Menten fit. Format: biochemical, metagenome: marine microbial consortium. The conditions noted are these: 40 mM sodium phosphate pH 7.5, 30°C; rate declines at 2,700 μM MHET (fit up to 2,230 μM).

The Km is the concentration of substrate that gives half-maximal velocity.

Take `O=C(O)c1ccc(C(=O)OCCO)cc1` [MHET]: the Km was 2640 µM.
